In patent US4946842A, “Novel guanidino pyridazinones as cardiac stimulants” (Smith Kline & French Laboratories Limited, priority 1985, dated 1990):

What was measured:
ventricular strips = assay: Cardiac stimulant activity in vitro: force of contraction of electrically stimulated ventricular strips; assay type: cell-based; conditions: Cavia porcellus, read-out: EC50 (50% increase in the force of contraction of the ventricular strips); guinea pig ventricular strips, 37° C., 1.0 Hz, cumulative concentration response
Method: The compounds of formula (I) and their pharmaceutically acceptable salts are tested for cardiac stimulant activity following a procedure based on that of S. C. Verma and J. H. McNeill (J.Pharm & Exp. Therapeutics, 200, 352-362 (1977)). Guinea pigs (500-700 g) of either sex are sacrificed and the hearts are quickly removed and transferred to a dissecting dish containing oxygenated bathing fluid. While in the bathing medium, the right ventricle is cut into two strips. The strips are each suspended in a 50 ml bath containing Krebs Henseleit solution at 37° C., and the bath is bubbled with 95% oxygen and 5% carbon dioxide. The ventricular strips are electrically stimulated at a frequency of 1.0 Hz, at double the threshold voltage. A resting tension of 1.0 g is applied to the strips and the tension is kept constant by readjustment during an equilibration period of 60 minutes. The bathing fluid is frequently changed during this period. When a steady base line is obtained, a compound under test is added to the bathing fluid and a cumulative concentration response curve is plotted. The compounds for use in the present invention which were tested gave a 50% increase in the force of contraction of the ventricular strips at concentrations in the bathing fluid of less than 10^-4 molar, thus showing that they have activity as positive inotropic agents.

[1] = tested on: left ventricular dp/dt max; assay: Cardiac stimulant activity in vivo (anaesthetised cats): left ventricular dp/dt max; design: species or system cat; conditions: Felis catus, iv, read-out: ED50 (dose to increase left ventricular dp/dt max by 50%), i.v., pretreated with ganglion blocker and propranolol
From the text: Cardiac Stimulant Activity--In vivo (Anaesthetised Cats)
# Relative duration was estimated in the anaesthetised cats following the

PDE (Peak III) = assay: Inhibition of PDE (Peak III); conditions: read-out: IC50 (PDE Peak III); 1 μM cyclic AMP
Method: (§1) The enzyme was assayed by incubation at 37° for 4-30 min in 50 mM Tris, 5 mM MgCl2, pH 7.5 with [3-H] cyclic nucleotide (4×10^5 disintegrations min^-1) and [14-C] nucleotide 5' monophosphate (3×10^3 disintegrations min^-1). The assay was stopped by boiling, and the [3-H] […] The reaction mixture was diluted with 0.5 ml 100 mM HEPES (N-2-Hydroxyethylpiperazine-N'-2-ethanesulfonic acid), 100 mM NaCl, pH 8.5, and applied to the column. […] The recovery of product as judged by [14-C] recovery was approximately 80%. All assays were linear with time of incubation and concentration of enzyme over the range used in these experiments.

PDE (Peak I) = assay: Substrate kinetics of PDE (Peak I); assay type: biochemical, cat; conditions: for Relative Vmax: PDE (Peak I), eluted at 0.15 M Na acetate
PDE (Peak II) = conditions: in words
Method: as §1

| EC50 (ventricular strips) [µM] | SMILES | ED50 [1] [µmol/kg] | other results |
| --- | --- | --- | --- |
| 16 | CC(=O)N=C(N)Nc1ccc(C2=NNC(=O)CC2C)cc1 (stereo not shown) [Example 1, 6-[4-(N^2-acetylguanidino)phenyl]-5-methyl-4,5-dihydro-3(2H)-pyridazinone] | 0.5 | IC50 (PDE (Peak III)): 2.23 µM |
|  | CNC(=NS(C)(=O)=O)Nc1ccc(C2=NNC(=O)CC2C)cc1 (stereo not shown) [Example 2, 6-[4-(N^3-methyl-N^2-methylsulphonylguanidino)phenyl]-5-methyl-4,5-dihydro-3(2H)-pyridazinone] | 0.2 | IC50 (PDE (Peak III)): 2.48 µM |
|  | CNC(=NS(=O)(=O)c1ccccc1)Nc1ccc(C2=NNC(=O)CC2C)cc1 (stereo not shown) [Example 3, 6-[4-(N^ 3-methyl-N^2-phenylsulphonylguanidino)phenyl]-5-methyl-4,5-dihydro-3(2H)-pyridazinone] | 0.1 | IC50 (PDE (Peak III)): 0.23 µM |
| 2.8 | COCCNC(=NC#N)Nc1ccc(C2=NNC(=O)CC2C)cc1 (stereo not shown) [Example 4, 6-[4-(N^3-(2-Methoxyethyl)-N^2-cyanoguanidino)phenyl]-5-methyl-4,5-dihydro-3(2H)-pyridazinone] | 0.2 |  |
| 8 | CC1CC(=O)NN=C1c1ccc(NC(=NC#N)NCCO)cc1 (stereo not shown) [Example 5, 6-[4-(N^3-(2-Hydroxyethyl)-N^2-cyanoguanidino)phenyl]-5-methyl-4,5-dihydro-3(2H)-pyridazinone] | 0.7 |  |
| 10 | CC1CC(=O)NN=C1c1ccc(NC(=NC#N)NC2CC2)cc1 (stereo not shown) [Example 6] | 0.4 |  |
| 10 | C=CCNC(=NC#N)Nc1ccc(C2=NNC(=O)CC2C)cc1 (stereo not shown) [Example 7, 6-[4-(N^3 -Allyl-N^2-cyanoguanidino)phenyl]-5-methyl-4,5-dihydro-3(2H)-pyridazinone] | 0.3 |  |
| 18 | C#CCNC(=NC#N)Nc1ccc(C2=NNC(=O)CC2C)cc1 (stereo not shown) [Example 8, 6-[4-(N^3 -Propargyl-N^2-cyanoguanidino)phenyl]-5-methyl-4,5-dihydro-3(2H)-pyridazinone] | 0.4 |  |
|  | CC1CC(=O)NN=C1c1ccc(NC(=NC#N)NCc2ccc(O)cc2)cc1 (stereo not shown) [Example 9, 6-[4-(N^3-(4-Hydroxybenzyl)-N^2-cyanoguanidino)phenyl]-5-methyl-4,5-dihydro-3(2H)-pyridazinone] | 0.4 | IC50 (PDE (Peak III)): 0.08 µM |
| 0.8 | CC1CC(=O)NN=C1c1ccc(NC(=NC#N)NCc2ccccc2)cc1 (stereo not shown) [Example 10, 6-[4-(N^3 -Benzyl-N^2-cyanoguanidino)phenyl]-5-methyl-4,5-dihydro-3(2H)-pyridazinone] | 0.1 |  |
|  | COc1ccc(CNC(=NC#N)Nc2ccc(C3=NNC(=O)CC3C)cc2)cc1 (stereo not shown) [Example 11, 6-[4-(N^3-(4-Methoxybenzyl)-N^2-cyanoguanidino)phenyl]-5-methyl-4,5-dihydro-3(2H)-pyridazinone] | 0.5 |  |
| 12 | CC1CC(=O)NN=C1c1ccc(NC(=NC#N)NCc2ccccn2)cc1 (stereo not shown) [Example 12, 6-[4-(N^3-(2-Pyridylmethyl)-N^2-cyanoguanidino)phenyl]-5-methyl-4,5-dihydro-3(2H)-pyridazinone] |  |  |
| 12.5 | CC1CC(=O)NN=C1c1ccc(NC(=NC#N)NCCc2ccccc2)cc1 (stereo not shown) [Example 13, 6-[4-(N^3 -Phenethyl-N^2-cyanoguanidino)phenyl]-5-methyl-4,5-dihydro-3(2H)-pyridazinone] |  |  |
|  | Nc1nc2c(ncn2[C@@H]2O[C@@H]3COP(=O)(O)O[C@H]3[C@H]2O)c(=O)[nH]1 [cyclic GMP] |  | Relative Vmax (PDE (Peak I); 50 μg/ml calmodulin added): 7.2; Relative Vmax (PDE (Peak I); without calmodulin): 1.1; affinity of PDE (Peak I) (PDE (Peak I); in words): high affinity; affinity of PDE (Peak II) (PDE (Peak II)): relatively low affinities |
